Results reported in ChEMBL document CHEMBL1201862, “PubChem BioAssay data set” (2004).
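Protocol summary: plate cells (96-well), add compound at 5 concentrations, incubate 48 h, interpolate endpoints linearly. GI50 = concentration required for 50% inhibition of growth.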 The source made the active and inactive calls. Rule as the data show it: active = GI50 up to about 1.1 µM and inactive = higher.

Assays:
Assay in all cases: growth of human tumour cells (NCI), 48 h
[1] = test system: 786-0
[2] = test system: CAKI-1
[3] = test system: COLO 205
[4] = test system: HCT-116
[5] = test system: HCT-15
[6] = test system: HOP-62
[7] = test system: IGROV-1
[8] = test system: M14
[9] = test system: MOLT-4
[10] = test system: OVCAR-5
[11] = test system: RPMI-8226
[12] = test system: SF-295
[13] = test system: SF-539
[14] = test system: SK-MEL-28
[15] = test system: SK-MEL-5
[16] = test system: SN12C
[17] = test system: SNB-75
[18] = test system: U-251
[19] = test system: UACC-62

SMILES	GI50 [1]	GI50 [2]	GI50 [3]	GI50 [4]	GI50 [5]	GI50 [6]	GI50 [7]	GI50 [8]	GI50 [9]	GI50 [10]	GI50 [11]	GI50 [12]	GI50 [13]	GI50 [14]	GI50 [15]	GI50 [16]	GI50 [17]	GI50 [18]	GI50 [19]
CCOP(=O)(OCC)C1CCCOC1=O (configuration not stated)	> 100 µM (inactive)	> 100 µM (inactive)	> 100 µM (inactive)	> 100 µM (inactive)	> 100 µM	> 100 µM (inactive)	> 100 µM (inactive)	> 100 µM (inactive)	> 100 µM (inactive)	> 100 µM (inactive)	> 100 µM (inactive)	> 100 µM (inactive)	> 100 µM (inactive)	> 100 µM (inactive)	> 100 µM (inactive)	> 100 µM (inactive)	> 100 µM (inactive)	> 100 µM (inactive)	> 100 µM (inactive)
CCc1ccccc1NC(=O)C1=C(C)NC(C)=C(C(=O)Nc2ccccc2CC)C1c1cccc([N+](=O)[O-])c1	43 µM (inactive)	43.8 µM (inactive)	34.7 µM (inactive)			38.3 µM (inactive)	21.8 µM (inactive)	29 µM (inactive)	7.45 µM (inactive)	41.5 µM (inactive)	11.7 µM (inactive)	47.4 µM (inactive)	43.9 µM (inactive)	40.9 µM (inactive)	27.7 µM (inactive)	70.6 µM (inactive)	32.1 µM (inactive)	39.4 µM (inactive)	
C1=CC(=P(c2ccccc2)(c2ccccc2)c2ccccc2)C=C1	10.4 µM (inactive)	17.9 µM (inactive)	4.13 µM (inactive)		29.7 µM	18.4 µM (inactive)	11.5 µM (inactive)	8.22 µM (inactive)	5.4 µM (inactive)	14.7 µM (inactive)	3.18 µM (inactive)	15.1 µM (inactive)	14.8 µM (inactive)	4.45 µM (inactive)	12.2 µM (inactive)	10.3 µM (inactive)	3.37 µM (inactive)		6.25 µM (inactive)
COc1cc(-c2cc(=O)c3ccccc3o2)ccc1N	> 100 µM (inactive)	11.7 µM (inactive)	69.3 µM (inactive)	54.3 µM (inactive)	27 µM	41 µM (inactive)	> 100 µM (inactive)	> 100 µM (inactive)	25.5 µM (inactive)	84.7 µM (inactive)	45.5 µM (inactive)	46.7 µM (inactive)	30.8 µM (inactive)	> 100 µM (inactive)	41.1 µM (inactive)	65.8 µM (inactive)	19.7 µM (inactive)	> 100 µM (inactive)	79.8 µM (inactive)
CC1OC(OCC2COC(O)(Oc3c(-c4ccc(O)c(O)c4)oc4cc(O)cc(O)c4c3=O)C(O)C2O)C(O)C(O)C1O (configuration not stated)	> 100 µM (inactive)	> 100 µM (inactive)	> 100 µM (inactive)	> 100 µM (inactive)	> 100 µM	> 100 µM (inactive)	> 100 µM (inactive)	> 100 µM (inactive)	> 100 µM (inactive)	> 100 µM (inactive)	> 100 µM (inactive)	> 100 µM (inactive)	> 100 µM (inactive)	> 100 µM (inactive)	> 100 µM (inactive)	> 100 µM (inactive)	> 100 µM (inactive)	> 100 µM (inactive)	> 100 µM (inactive)
Cn1c(O)c(C(=O)Nc2cccs2)c(=O)[nH]c1=S	20.2 µM (inactive)	13 µM (inactive)	16.6 µM (inactive)	13.4 µM (inactive)	12.7 µM	17.4 µM (inactive)	18.2 µM (inactive)	23.1 µM (inactive)	24.7 µM (inactive)	28.6 µM (inactive)	19.5 µM (inactive)	15.5 µM (inactive)	16.5 µM (inactive)	15.1 µM (inactive)	13.6 µM (inactive)	17.7 µM (inactive)	16.9 µM (inactive)	14.8 µM (inactive)	14.1 µM (inactive)
COc1ccc(C2ON(c3ccccn3)CC=C2C)cc1 (configuration not stated)	> 100 µM (inactive)	> 100 µM (inactive)	> 100 µM (inactive)		> 100 µM	> 100 µM (inactive)	> 100 µM (inactive)	> 100 µM (inactive)	96.4 µM (inactive)	36.5 µM (inactive)	60.1 µM (inactive)	> 100 µM (inactive)	> 100 µM (inactive)	> 100 µM (inactive)	> 100 µM (inactive)	> 100 µM (inactive)	> 100 µM (inactive)	> 100 µM (inactive)	> 100 µM (inactive)
CCOC(=O)C1=C(C)NC2=C(C(=O)N(c3ccccc3)C2c2ccccc2)C1c1ccccc1 (configuration not stated)	18.9 µM (inactive)	16 µM (inactive)	18.7 µM (inactive)	16.9 µM (inactive)	16 µM	17.1 µM (inactive)	15.4 µM (inactive)	16.7 µM (inactive)	19.8 µM (inactive)	16.3 µM (inactive)	17.1 µM (inactive)	> 10 µM (inactive)	17.8 µM (inactive)	17.7 µM (inactive)	15.1 µM (inactive)	17.9 µM (inactive)	12.3 µM (inactive)	15.1 µM (inactive)	12.6 µM (inactive)
COc1cc(-c2nn3c(=O)n(-c4ccc(Cl)cc4)c(=O)nc3s2)cc(OC)c1OC	12.3 µM (inactive)	18.2 µM (inactive)	> 100 µM (inactive)	33.7 µM (inactive)	> 88.3 µM	18.4 µM (inactive)	> 89.1 µM (inactive)	39.2 µM (inactive)	98.2 µM (inactive)	> 100 µM (inactive)	> 50 µM (inactive)	> 50 µM (inactive)	17 µM (inactive)	> 93.1 µM (inactive)	> 52.4 µM (inactive)	> 96.2 µM (inactive)	8.24 µM (inactive)	18 µM (inactive)	> 50 µM (inactive)
Cc1nn(-c2ccccc2)c(-c2ccccc2[N+](=O)[O-])c1CC#N	> 100 µM (inactive)	> 100 µM (inactive)	> 100 µM (inactive)		> 100 µM	> 100 µM (inactive)	> 100 µM (inactive)	> 100 µM (inactive)	67.3 µM (inactive)	> 100 µM (inactive)	63.2 µM (inactive)	> 100 µM (inactive)	> 100 µM (inactive)	> 100 µM (inactive)	7.87 µM (inactive)	> 100 µM (inactive)	> 100 µM (inactive)		78.5 µM (inactive)
C(=C\C(Sc1ccccc1)c1ccccc1)/NNC1=NN=C(c2ccccc2)C(c2ccccc2)N1 (configuration not stated)	65.2 µM (inactive)	24.8 µM (inactive)	32.2 µM (inactive)	42.2 µM (inactive)	23.5 µM	16.5 µM (inactive)	68.5 µM (inactive)	75 µM (inactive)	8.2 µM (inactive)	35.5 µM (inactive)	16.4 µM (inactive)	32.7 µM (inactive)	65.3 µM (inactive)	> 100 µM (inactive)	45.9 µM (inactive)	55 µM (inactive)	> 100 µM (inactive)	30 µM (inactive)	21.5 µM (inactive)
CO[C@H]1O[C@@H]2OC3(C)CCC4[C@H](C)CCC([C@H]1C)[C@]42OO3 (some centres not stated)	> 100 µM (inactive)	> 100 µM (inactive)	28.2 µM (inactive)	> 100 µM (inactive)	> 100 µM	> 100 µM (inactive)	> 100 µM (inactive)	> 100 µM (inactive)	36.6 µM (inactive)	> 100 µM (inactive)	12.1 µM (inactive)	> 100 µM (inactive)	> 100 µM (inactive)	> 100 µM (inactive)	38 µM (inactive)	> 100 µM (inactive)	85.9 µM (inactive)	> 100 µM (inactive)	> 100 µM (inactive)
CC1CCC2(NC1)OC1CC3[C@@H]4CC=C5C=CCC[C@]5(C)C4CC[C@]3(C)C1C2C (some centres not stated)	16.6 µM (inactive)	26.3 µM (inactive)	17.3 µM (inactive)	17.7 µM (inactive)	21 µM	18.6 µM (inactive)	30.3 µM (inactive)	22.4 µM (inactive)	21.7 µM (inactive)	23.6 µM (inactive)	20 µM (inactive)	23.3 µM (inactive)	19.6 µM (inactive)	15.6 µM (inactive)	15.3 µM (inactive)	27.7 µM (inactive)	15.5 µM (inactive)	28.3 µM (inactive)	21 µM (inactive)
COc1ccc(-c2cc(=O)c3c(O)cccc3o2)c(OC)c1OC	> 100 µM (inactive)	97.3 µM (inactive)	> 100 µM (inactive)	38.7 µM (inactive)	10.1 µM	10.3 µM (inactive)	> 100 µM (inactive)	> 100 µM (inactive)	12.9 µM (inactive)	6.67 µM (inactive)	> 100 µM (inactive)	43.2 µM (inactive)	20.6 µM (inactive)	> 100 µM (inactive)	24.7 µM (inactive)	76.9 µM (inactive)	11.9 µM (inactive)	16.1 µM (inactive)	> 100 µM (inactive)
c1ccc(COc2ccc3[nH]c4c5c6ccccc6nc-5c[nH]c4c3c2)cc1	6.46 µM (inactive)	22 µM (inactive)	19 µM (inactive)	12.2 µM (inactive)	4.3 µM	15.8 µM (inactive)	13.8 µM (inactive)	13.7 µM (inactive)	7.62 µM (inactive)	19.4 µM (inactive)	2.97 µM (inactive)	14.8 µM (inactive)	15.7 µM (inactive)	17.2 µM (inactive)	15.7 µM (inactive)	15.4 µM (inactive)	12.7 µM (inactive)	11.7 µM (inactive)	19.6 µM (inactive)
